Like-named read-outs stand apart in the source and are kept apart here.
Key:
[1] = cited from earlier work
[2] = saturated donor solution in water, receptor pH 7.4, 37° C., 0-26 hrs; compared to human, rat, pig skin
[3] = cited from earlier work; remark: listed apart in the source
[4] = cited from earlier work; remark: listed apart in the source
[5] = cited from earlier work; remark: listed apart in the source
[6] = separate human skin samples compared
[7] = Transdermal diffusion, vertical Franz Cell, untreated membrane; type: in vitro ADME; details: saturated donor solution in water, Sorensen's buffer pH 7.4 receptor, 37° C., 0-26 hrs
Description: Conditions for HPLC analysis of flufenamic acid are as noted below: Column Used: Zorbax XDB C18, 3.9 mm×150 mm, 5 μm Mobile Phase Used: 90% Methanol+10% water containing 40 mM acetic acid; Detection wavelength: 280 nm.

[8] = Transdermal diffusion (cumulative flux) through rat skin samples; details: rat skin samples of different ages, or rat versus human skin

| SMILES | Aqueous Solubility, LogS [1] | Log P [3] | Log D (pH 7.4) [5] | other results |
| --- | --- | --- | --- | --- |
| C[C@@H]1C[C@H]2[C@@H]3CCC4=CC(=O)C=C[C@]4(C)[C@@]3(F)[C@@H](O)C[C@]2(C)[C@@]1(O)C(=O)CO [Dexamethasone] | −3.89 | 1.869 | – | diffusion (cumulative flux) across treated membrane relative to skin [2]: diffusion similar to human and pig skin; Log P ([3]; listed as dexamethasone): 1.896; pKa [4]: 12.14 |
| CC(=O)Oc1ccccc1C(=O)O [Acetyl Salicylic Acid (Aspirin), Acetyl Salicylic Acid] | – | – | −1.89 | – |
| COC(=O)c1ccc(O)cc1 [Methyl paraben, methyl p-hydroxybenzoate] | – | – | – | diffusion (cumulative flux) through separate human skin samples [6]: high degree of variability between the different human skin samples |
| O=C(O)c1ccccc1Nc1cccc(C(F)(F)F)c1 [Flufenamic Acid] | – | 5.2 | – | diffusion (cumulative flux) across untreated membrane relative to human skin [7]: better correlation to human skin than the treated membrane |
| CCCCNc1ccc(C(=O)OCCN(C)C)cc1 [Tetracaine] | −2.75 | 3.649 | 2.75 | pKa [4]: 8.24 |
| Oc1cc(Cl)ccc1Oc1ccc(Cl)cc1Cl [Triclosan/Irgasan, Triclosan] | – | 4.76 | – | – |
| O=C(O)Cc1ccccc1Nc1c(Cl)cccc1Cl [Diclofenac] | – | 4.05 | 0.95 | – |
| C[C@]12CCC(=O)C=C1CC[C@@H]1[C@@H]2[C@@H](O)C[C@@]2(C)[C@H]1CC[C@]2(O)C(=O)CO [Hydrocortisone] | – | 1.462 | – | diffusion (cumulative flux) through rat skin [8]: does not appear to show a high degree of correlation with human skin; pKa [4]: 12.48 |
| COc1cc(Cc2cnc(N)nc2N)cc(OC)c1OC [Trimethoprim] | −2.67 | – | – | – |
| Clc1ccccc1C(c1ccccc1)(c1ccccc1)n1ccnc1 [Clotrimazole] | −5.37 | 6.1 | – | diffusion (cumulative flux) across treated membrane relative to skin [2]: high degree of correlation with human skin |
| O=C(c1ccccc1)c1ccc2n1CCC2C(=O)O (stereo not shown) [Ketorolac] | −2.7 | – | – | – |
| CN(C)CCCN1c2ccccc2Sc2ccc(Cl)cc21 [Chlorpromazine] | −5.01 | 5.203 | 3.22 | – |
| CN1CCCC1c1cccnc1 (stereo not shown) [Nicotine] | −0.24 | 0.72 | 0.02 | diffusion (cumulative flux) through rat skin [8]: variability between the rat and human skin samples |
| CC(C(=O)O)c1ccc(-c2ccccc2)c(F)c1 (stereo not shown) [Flurbiprofen] | −4.49 | 4.115 | 0.98 | – |

From patent US8765254B2, “Polymeric membranes with human skin-like permeability properties and uses thereof” (EMD Millipore Corporation, priority 2010, dated 2014)
